Experimental data from ChEMBL document CHEMBL3991601, “The target landscape of clinical kinase drugs” (Science, 2017).
Calls of active or inactive are those of the source. On the calls: in the data inactive means no Kd found up to 30 µM.

target: G protein-coupled receptor kinase 6 (Homo sapiens, UniProt P43250)
Sequence (P43250 whole entry): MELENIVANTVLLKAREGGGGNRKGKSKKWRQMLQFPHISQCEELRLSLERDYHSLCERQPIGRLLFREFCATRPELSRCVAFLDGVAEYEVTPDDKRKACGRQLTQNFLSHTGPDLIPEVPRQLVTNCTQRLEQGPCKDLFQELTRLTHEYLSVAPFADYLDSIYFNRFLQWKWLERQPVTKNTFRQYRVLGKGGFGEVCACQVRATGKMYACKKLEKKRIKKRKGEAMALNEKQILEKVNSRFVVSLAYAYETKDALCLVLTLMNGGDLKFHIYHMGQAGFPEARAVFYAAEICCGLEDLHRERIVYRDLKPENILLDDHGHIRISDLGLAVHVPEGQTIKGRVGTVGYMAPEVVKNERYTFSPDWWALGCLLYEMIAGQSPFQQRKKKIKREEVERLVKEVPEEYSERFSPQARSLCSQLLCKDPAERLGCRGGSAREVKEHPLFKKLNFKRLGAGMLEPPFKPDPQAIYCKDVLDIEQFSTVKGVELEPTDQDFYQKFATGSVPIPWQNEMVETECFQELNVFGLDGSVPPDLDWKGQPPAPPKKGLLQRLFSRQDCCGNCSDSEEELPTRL

Which Kd does the source give for `Cc1cc([C@@H](C)Nc2ccccc2C(=O)O)c2nc(N3CCOCC3)cc(=O)n2c1` [AZD-6482] here?
The Kd was > 30 µM (inactive).

Which Kd does the source give for `Cc1ccc(NC(=O)c2ccc(CN3CC[C@H](N(C)C)C3)c(C(F)(F)F)c2)cc1Nc1nccc(-c2cncnc2)n1` [BAFETINIB] here?
Its Kd is > 30 µM (inactive).

Which Kd does the source give for `Cc1cc2c(F)c(Oc3ncnn4cc(OC[C@@H](C)OC(=O)[C@H](C)N)c(C)c34)ccc2[nH]1` [BRIVANIB ALANINATE] here?
Its Kd is > 30 µM (inactive).

With `CCc1cnn2c(NCc3ccc[n+]([O-])c3)cc(N3CCCC[C@H]3CCO)nc12` [DINACICLIB] as the molecule, how does the Kd read?
The Kd was > 30 µM (inactive).

target: T1, Eukaryotic translation initiation factor 5B (Homo sapiens, UniProt O60841)
T1 sequence (O60841 whole entry): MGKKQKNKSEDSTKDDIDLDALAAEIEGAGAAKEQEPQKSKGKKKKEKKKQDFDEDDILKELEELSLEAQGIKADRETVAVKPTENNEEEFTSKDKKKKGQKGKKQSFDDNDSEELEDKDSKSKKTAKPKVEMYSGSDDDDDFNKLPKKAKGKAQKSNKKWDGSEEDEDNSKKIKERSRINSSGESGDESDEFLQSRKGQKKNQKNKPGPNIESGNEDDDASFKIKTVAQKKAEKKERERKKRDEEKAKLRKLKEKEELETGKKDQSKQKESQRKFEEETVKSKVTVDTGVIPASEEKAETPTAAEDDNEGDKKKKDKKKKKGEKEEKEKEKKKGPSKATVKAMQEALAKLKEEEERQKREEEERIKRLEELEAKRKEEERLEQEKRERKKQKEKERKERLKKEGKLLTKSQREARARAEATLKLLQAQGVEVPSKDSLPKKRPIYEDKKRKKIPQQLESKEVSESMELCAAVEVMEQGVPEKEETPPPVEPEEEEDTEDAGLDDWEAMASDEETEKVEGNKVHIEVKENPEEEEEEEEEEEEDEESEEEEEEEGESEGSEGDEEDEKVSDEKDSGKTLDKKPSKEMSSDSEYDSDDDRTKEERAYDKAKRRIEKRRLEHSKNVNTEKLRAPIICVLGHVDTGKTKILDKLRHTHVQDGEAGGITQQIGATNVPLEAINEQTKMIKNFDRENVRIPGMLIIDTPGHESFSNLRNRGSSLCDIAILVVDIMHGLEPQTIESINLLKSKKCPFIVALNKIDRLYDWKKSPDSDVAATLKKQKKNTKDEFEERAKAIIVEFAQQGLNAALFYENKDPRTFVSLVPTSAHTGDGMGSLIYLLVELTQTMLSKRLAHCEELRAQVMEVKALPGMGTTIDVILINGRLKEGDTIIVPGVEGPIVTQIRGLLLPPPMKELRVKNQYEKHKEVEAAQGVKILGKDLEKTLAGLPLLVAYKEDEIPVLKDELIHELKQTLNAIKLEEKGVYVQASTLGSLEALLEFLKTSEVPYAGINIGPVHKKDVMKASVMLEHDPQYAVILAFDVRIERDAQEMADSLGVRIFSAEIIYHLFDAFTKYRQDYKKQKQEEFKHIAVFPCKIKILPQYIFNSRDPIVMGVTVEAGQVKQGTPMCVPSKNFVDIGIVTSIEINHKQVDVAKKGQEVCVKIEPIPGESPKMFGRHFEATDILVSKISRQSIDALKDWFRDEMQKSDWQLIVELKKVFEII

How did the Kd turn out when `Cc1cc([C@@H](C)Nc2ccccc2C(=O)O)c2nc(N3CCOCC3)cc(=O)n2c1` [AZD-6482] was run?
The Kd was > 30 µM (inactive).

With `CCc1cnn2c(NCc3ccc[n+]([O-])c3)cc(N3CCCC[C@H]3CCO)nc12` [DINACICLIB] as the molecule, how does the Kd read?
Its Kd is > 30 µM (inactive).

target: Myosin-10 (Homo sapiens, UniProt P35580)
Sequence (P35580 whole entry): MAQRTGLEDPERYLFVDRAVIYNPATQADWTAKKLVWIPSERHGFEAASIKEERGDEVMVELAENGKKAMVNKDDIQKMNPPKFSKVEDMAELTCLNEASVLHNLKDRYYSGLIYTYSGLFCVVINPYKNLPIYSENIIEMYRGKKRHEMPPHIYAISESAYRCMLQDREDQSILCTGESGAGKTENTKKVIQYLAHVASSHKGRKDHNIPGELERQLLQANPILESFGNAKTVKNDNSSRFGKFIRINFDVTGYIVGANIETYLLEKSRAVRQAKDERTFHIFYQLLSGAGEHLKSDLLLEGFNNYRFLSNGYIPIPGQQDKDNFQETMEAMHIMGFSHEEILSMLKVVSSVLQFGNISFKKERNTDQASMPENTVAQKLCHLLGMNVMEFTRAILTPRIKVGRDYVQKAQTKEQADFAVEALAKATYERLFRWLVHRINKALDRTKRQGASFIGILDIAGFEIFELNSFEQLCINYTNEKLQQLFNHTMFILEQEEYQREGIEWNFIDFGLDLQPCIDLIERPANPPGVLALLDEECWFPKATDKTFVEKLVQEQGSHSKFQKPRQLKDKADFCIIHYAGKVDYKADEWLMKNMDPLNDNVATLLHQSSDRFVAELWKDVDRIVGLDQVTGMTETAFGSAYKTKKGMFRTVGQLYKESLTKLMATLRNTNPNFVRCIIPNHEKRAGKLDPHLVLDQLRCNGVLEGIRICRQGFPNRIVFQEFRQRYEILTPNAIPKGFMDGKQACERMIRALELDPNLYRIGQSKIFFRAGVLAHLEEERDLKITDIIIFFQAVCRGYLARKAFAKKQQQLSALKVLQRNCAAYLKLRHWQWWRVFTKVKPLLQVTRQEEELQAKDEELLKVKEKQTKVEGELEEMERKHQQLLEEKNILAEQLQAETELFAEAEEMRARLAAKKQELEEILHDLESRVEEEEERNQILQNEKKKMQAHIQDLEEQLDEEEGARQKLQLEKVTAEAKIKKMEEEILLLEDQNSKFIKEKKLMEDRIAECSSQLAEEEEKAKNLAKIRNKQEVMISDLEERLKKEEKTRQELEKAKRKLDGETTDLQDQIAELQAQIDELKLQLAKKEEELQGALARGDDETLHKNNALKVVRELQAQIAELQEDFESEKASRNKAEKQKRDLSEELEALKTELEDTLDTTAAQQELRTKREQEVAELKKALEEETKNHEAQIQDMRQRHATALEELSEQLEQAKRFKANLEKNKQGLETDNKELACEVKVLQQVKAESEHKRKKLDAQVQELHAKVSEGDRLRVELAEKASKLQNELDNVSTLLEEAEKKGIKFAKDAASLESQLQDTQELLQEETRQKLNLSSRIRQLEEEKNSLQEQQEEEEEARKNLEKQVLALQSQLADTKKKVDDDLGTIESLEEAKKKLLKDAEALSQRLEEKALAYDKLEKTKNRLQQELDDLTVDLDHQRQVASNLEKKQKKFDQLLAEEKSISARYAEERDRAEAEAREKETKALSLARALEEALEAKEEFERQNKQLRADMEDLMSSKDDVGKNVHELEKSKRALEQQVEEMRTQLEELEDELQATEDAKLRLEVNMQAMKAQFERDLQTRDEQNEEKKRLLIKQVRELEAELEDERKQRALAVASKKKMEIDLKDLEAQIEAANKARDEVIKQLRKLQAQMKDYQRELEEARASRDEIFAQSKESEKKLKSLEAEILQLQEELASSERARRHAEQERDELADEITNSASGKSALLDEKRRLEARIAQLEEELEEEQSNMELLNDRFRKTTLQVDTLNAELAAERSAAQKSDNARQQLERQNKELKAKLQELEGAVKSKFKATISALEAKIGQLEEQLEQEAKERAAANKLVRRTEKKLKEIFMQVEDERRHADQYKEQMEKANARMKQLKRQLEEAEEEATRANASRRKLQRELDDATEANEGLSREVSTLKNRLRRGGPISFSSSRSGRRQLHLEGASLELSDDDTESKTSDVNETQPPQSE

For `Cc1cc([C@@H](C)Nc2ccccc2C(=O)O)c2nc(N3CCOCC3)cc(=O)n2c1` [AZD-6482], which Kd is on record?
Its Kd is > 30 µM (inactive).

How did the Kd turn out when `Cc1ccc(NC(=O)c2ccc(CN3CC[C@H](N(C)C)C3)c(C(F)(F)F)c2)cc1Nc1nccc(-c2cncnc2)n1` [BAFETINIB] was run?
Its Kd is > 30 µM (inactive).

How did the Kd turn out when `Cc1cc2c(F)c(Oc3ncnn4cc(OC[C@@H](C)OC(=O)[C@H](C)N)c(C)c34)ccc2[nH]1` [BRIVANIB ALANINATE] was run?
The Kd was > 30 µM (inactive).

With `CCc1cnn2c(NCc3ccc[n+]([O-])c3)cc(N3CCCC[C@H]3CCO)nc12` [DINACICLIB] as the molecule, how does the Kd read?
The Kd was > 30 µM (inactive).

target: PAS domain-containing serine/threonine-protein kinase (Homo sapiens, UniProt Q96RG2)

With `Cc1cc([C@@H](C)Nc2ccccc2C(=O)O)c2nc(N3CCOCC3)cc(=O)n2c1` [AZD-6482] as the molecule, how does the Kd read?
Its Kd is > 30 µM (inactive).

How did the Kd turn out when `Cc1ccc(NC(=O)c2ccc(CN3CC[C@H](N(C)C)C3)c(C(F)(F)F)c2)cc1Nc1nccc(-c2cncnc2)n1` [BAFETINIB] was run?
The Kd was > 30 µM (inactive).

Which Kd does the source give for `Cc1cc2c(F)c(Oc3ncnn4cc(OC[C@@H](C)OC(=O)[C@H](C)N)c(C)c34)ccc2[nH]1` [BRIVANIB ALANINATE] here?
Its Kd is > 30 µM (inactive).

`CCc1cnn2c(NCc3ccc[n+]([O-])c3)cc(N3CCCC[C@H]3CCO)nc12` [DINACICLIB] was tested. Which Kd did it give?
The Kd was > 30 µM (inactive).

target: T2, Adenine phosphoribosyltransferase (Homo sapiens, UniProt P07741)
T2 sequence (P07741 whole entry): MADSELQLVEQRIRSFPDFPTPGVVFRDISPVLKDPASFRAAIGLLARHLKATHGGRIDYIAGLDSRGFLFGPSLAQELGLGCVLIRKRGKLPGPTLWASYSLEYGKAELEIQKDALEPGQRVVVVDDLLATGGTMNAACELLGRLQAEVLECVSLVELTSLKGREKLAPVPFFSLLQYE

With `Cc1cc([C@@H](C)Nc2ccccc2C(=O)O)c2nc(N3CCOCC3)cc(=O)n2c1` [AZD-6482] as the molecule, how does the Kd read?
The Kd was > 30 µM (inactive).

Which Kd does the source give for `Cc1ccc(NC(=O)c2ccc(CN3CC[C@H](N(C)C)C3)c(C(F)(F)F)c2)cc1Nc1nccc(-c2cncnc2)n1` [BAFETINIB] here?
The Kd was > 30 µM (inactive).

With `Cc1cc2c(F)c(Oc3ncnn4cc(OC[C@@H](C)OC(=O)[C@H](C)N)c(C)c34)ccc2[nH]1` [BRIVANIB ALANINATE] as the molecule, how does the Kd read?
Its Kd is > 30 µM (inactive).

`CCc1cnn2c(NCc3ccc[n+]([O-])c3)cc(N3CCCC[C@H]3CCO)nc12` [DINACICLIB] was tested. Which Kd did it give?
Its Kd is > 30 µM (inactive).

target: Dual specificity testis-specific protein kinase 2 (Homo sapiens, UniProt Q96S53)
Sequence (Q96S53 whole entry): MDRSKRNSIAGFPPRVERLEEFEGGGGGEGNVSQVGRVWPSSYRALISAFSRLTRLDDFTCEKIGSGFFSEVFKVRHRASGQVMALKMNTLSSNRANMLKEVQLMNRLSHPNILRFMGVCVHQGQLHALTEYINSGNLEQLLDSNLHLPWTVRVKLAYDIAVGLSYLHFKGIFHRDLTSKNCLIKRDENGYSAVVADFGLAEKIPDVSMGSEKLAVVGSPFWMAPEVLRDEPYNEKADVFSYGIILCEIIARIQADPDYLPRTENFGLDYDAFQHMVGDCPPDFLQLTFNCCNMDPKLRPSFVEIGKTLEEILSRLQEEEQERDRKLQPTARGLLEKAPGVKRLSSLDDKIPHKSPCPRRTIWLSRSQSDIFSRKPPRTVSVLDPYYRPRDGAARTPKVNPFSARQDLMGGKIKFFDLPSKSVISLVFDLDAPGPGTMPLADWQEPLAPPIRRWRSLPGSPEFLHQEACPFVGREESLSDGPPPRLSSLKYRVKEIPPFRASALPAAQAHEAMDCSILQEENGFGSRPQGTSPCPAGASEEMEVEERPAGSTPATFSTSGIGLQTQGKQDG

With `Cc1cc([C@@H](C)Nc2ccccc2C(=O)O)c2nc(N3CCOCC3)cc(=O)n2c1` [AZD-6482] as the molecule, how does the Kd read?
Its Kd is > 30 µM (inactive).

How did the Kd turn out when `Cc1ccc(NC(=O)c2ccc(CN3CC[C@H](N(C)C)C3)c(C(F)(F)F)c2)cc1Nc1nccc(-c2cncnc2)n1` [BAFETINIB] was run?
The Kd was > 30 µM (inactive).

Which Kd does the source give for `Cc1cc2c(F)c(Oc3ncnn4cc(OC[C@@H](C)OC(=O)[C@H](C)N)c(C)c34)ccc2[nH]1` [BRIVANIB ALANINATE] here?
The Kd was > 30 µM (inactive).

How did the Kd turn out when `CCc1cnn2c(NCc3ccc[n+]([O-])c3)cc(N3CCCC[C@H]3CCO)nc12` [DINACICLIB] was run?
Its Kd is > 30 µM (inactive).

target: Serine/threonine-protein kinase 24 (Homo sapiens, UniProt Q9Y6E0)
Sequence (Q9Y6E0 whole entry): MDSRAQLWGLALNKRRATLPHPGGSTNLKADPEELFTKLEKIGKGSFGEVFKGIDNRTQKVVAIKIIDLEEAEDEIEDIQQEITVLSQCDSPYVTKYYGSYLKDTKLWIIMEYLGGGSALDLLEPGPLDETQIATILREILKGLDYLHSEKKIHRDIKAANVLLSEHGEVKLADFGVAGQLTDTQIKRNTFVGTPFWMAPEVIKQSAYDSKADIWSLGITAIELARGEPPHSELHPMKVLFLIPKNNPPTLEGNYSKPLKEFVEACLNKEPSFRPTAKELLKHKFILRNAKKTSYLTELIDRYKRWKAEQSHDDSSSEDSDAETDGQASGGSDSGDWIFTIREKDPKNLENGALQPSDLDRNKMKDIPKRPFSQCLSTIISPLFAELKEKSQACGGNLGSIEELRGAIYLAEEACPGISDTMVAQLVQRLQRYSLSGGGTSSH

`Cc1cc([C@@H](C)Nc2ccccc2C(=O)O)c2nc(N3CCOCC3)cc(=O)n2c1` [AZD-6482] was tested. Which Kd did it give?
Its Kd is > 30 µM (inactive).

`Cc1cc2c(F)c(Oc3ncnn4cc(OC[C@@H](C)OC(=O)[C@H](C)N)c(C)c34)ccc2[nH]1` [BRIVANIB ALANINATE] was tested. Which Kd did it give?
Its Kd is > 30 µM (inactive).

How did the Kd turn out when `CCc1cnn2c(NCc3ccc[n+]([O-])c3)cc(N3CCCC[C@H]3CCO)nc12` [DINACICLIB] was run?
Its Kd is > 30 µM (inactive).

target: Uncharacterized aarF domain-containing protein kinase 5 (Homo sapiens, UniProt Q3MIX3)
Sequence (Q3MIX3 whole entry, the tested form may be a part): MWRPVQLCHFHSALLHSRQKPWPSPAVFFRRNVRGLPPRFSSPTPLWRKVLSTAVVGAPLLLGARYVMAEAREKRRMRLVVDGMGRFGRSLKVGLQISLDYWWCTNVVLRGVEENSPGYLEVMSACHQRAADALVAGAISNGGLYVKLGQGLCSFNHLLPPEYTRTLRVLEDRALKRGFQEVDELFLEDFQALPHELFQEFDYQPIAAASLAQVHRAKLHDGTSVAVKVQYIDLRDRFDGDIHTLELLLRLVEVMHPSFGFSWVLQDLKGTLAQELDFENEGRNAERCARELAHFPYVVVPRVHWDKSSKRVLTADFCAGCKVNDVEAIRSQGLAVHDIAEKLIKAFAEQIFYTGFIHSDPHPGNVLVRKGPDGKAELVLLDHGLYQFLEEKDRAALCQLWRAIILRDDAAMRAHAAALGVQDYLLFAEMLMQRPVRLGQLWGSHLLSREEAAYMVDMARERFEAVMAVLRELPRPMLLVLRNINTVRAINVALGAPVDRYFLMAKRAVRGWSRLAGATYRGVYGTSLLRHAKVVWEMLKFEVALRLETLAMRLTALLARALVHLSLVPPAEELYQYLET

How did the Kd turn out when `Cc1cc([C@@H](C)Nc2ccccc2C(=O)O)c2nc(N3CCOCC3)cc(=O)n2c1` [AZD-6482] was run?
The Kd was > 30 µM (inactive).

How did the Kd turn out when `Cc1ccc(NC(=O)c2ccc(CN3CC[C@H](N(C)C)C3)c(C(F)(F)F)c2)cc1Nc1nccc(-c2cncnc2)n1` [BAFETINIB] was run?
Its Kd is > 30 µM (inactive).

With `Cc1cc2c(F)c(Oc3ncnn4cc(OC[C@@H](C)OC(=O)[C@H](C)N)c(C)c34)ccc2[nH]1` [BRIVANIB ALANINATE] as the molecule, how does the Kd read?
Its Kd is > 30 µM (inactive).

How did the Kd turn out when `CCc1cnn2c(NCc3ccc[n+]([O-])c3)cc(N3CCCC[C@H]3CCO)nc12` [DINACICLIB] was run?
The Kd was > 30 µM (inactive).

target: T3, ATP-dependent RNA helicase DHX30 (Homo sapiens, UniProt Q7L2E3)
T3 sequence (Q7L2E3 whole entry): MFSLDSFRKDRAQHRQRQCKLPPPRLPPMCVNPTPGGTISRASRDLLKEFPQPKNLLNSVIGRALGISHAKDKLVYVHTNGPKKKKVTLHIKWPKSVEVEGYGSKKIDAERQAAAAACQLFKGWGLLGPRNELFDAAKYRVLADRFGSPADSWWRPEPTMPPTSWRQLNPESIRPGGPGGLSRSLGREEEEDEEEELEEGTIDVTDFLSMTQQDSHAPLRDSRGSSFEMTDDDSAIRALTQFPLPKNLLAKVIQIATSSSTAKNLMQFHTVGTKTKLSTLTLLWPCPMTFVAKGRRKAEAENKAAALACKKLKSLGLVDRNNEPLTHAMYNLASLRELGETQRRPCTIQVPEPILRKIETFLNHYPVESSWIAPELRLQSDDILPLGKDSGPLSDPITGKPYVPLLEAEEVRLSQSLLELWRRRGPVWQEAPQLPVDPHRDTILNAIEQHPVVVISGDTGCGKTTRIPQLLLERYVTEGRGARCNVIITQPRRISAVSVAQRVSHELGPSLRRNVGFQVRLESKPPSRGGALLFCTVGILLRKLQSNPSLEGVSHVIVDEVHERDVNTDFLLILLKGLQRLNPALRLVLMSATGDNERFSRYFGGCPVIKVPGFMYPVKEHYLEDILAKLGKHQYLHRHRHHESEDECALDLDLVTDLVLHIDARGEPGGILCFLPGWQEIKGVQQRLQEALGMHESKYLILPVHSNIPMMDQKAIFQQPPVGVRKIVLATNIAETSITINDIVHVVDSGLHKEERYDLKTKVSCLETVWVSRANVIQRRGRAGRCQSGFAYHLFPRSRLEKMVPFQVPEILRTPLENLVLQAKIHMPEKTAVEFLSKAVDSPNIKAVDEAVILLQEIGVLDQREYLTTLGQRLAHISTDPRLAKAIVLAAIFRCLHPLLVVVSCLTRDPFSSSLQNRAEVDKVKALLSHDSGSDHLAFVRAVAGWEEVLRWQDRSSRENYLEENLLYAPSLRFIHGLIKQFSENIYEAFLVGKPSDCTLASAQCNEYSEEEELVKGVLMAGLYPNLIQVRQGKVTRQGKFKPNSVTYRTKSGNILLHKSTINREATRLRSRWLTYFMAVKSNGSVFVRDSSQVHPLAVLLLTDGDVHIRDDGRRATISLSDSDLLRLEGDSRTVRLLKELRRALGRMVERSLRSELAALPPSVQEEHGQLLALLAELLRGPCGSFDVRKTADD

`Cc1cc([C@@H](C)Nc2ccccc2C(=O)O)c2nc(N3CCOCC3)cc(=O)n2c1` [AZD-6482] was tested. Which Kd did it give?
Its Kd is > 30 µM (inactive).

With `Cc1cc2c(F)c(Oc3ncnn4cc(OC[C@@H](C)OC(=O)[C@H](C)N)c(C)c34)ccc2[nH]1` [BRIVANIB ALANINATE] as the molecule, how does the Kd read?
Its Kd is > 30 µM (inactive).

target: Obg-like ATPase 1 (Homo sapiens, UniProt Q9NTK5)
Sequence (Q9NTK5 whole entry, looked up): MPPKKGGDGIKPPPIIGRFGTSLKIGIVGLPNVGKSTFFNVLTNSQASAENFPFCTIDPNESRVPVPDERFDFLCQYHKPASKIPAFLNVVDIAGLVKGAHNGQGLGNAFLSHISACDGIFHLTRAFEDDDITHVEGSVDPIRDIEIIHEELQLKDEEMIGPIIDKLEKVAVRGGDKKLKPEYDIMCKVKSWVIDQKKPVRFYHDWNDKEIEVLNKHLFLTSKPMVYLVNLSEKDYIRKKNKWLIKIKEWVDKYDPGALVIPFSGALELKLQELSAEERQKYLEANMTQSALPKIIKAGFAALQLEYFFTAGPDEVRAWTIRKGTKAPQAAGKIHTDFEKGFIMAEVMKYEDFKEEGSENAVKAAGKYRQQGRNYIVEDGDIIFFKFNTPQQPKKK

`Cc1cc([C@@H](C)Nc2ccccc2C(=O)O)c2nc(N3CCOCC3)cc(=O)n2c1` [AZD-6482] was tested. Which Kd did it give?
Its Kd is > 30 µM (inactive).

`Cc1ccc(NC(=O)c2ccc(CN3CC[C@H](N(C)C)C3)c(C(F)(F)F)c2)cc1Nc1nccc(-c2cncnc2)n1` [BAFETINIB] was tested. Which Kd did it give?
Its Kd is > 30 µM (inactive).

Which Kd does the source give for `CCc1cnn2c(NCc3ccc[n+]([O-])c3)cc(N3CCCC[C@H]3CCO)nc12` [DINACICLIB] here?
The Kd was > 30 µM (inactive).
